Laboratory results published in publication PMC11882969 (Nature Communications, 2025).
“And” between values parts separate entries of the source, which are not always exact repeats. Identical values can stand only once.

Experiments:
Assay type in all cases: cell-based
[1] = target: panel of 320 non-olfactory GPCRs (Homo sapiens, UniProt P47871)
[2] = target: panel of 320 non-olfactory GPCRs (Homo sapiens, UniProt Q9UJ42)
[3] = target: panel of 320 non-olfactory GPCRs (Homo sapiens, UniProt P43220)
[4] = target: panel of 320 non-olfactory GPCRs (Homo sapiens, UniProt P16473)
[5] = target: panel of 320 non-olfactory GPCRs (Homo sapiens, UniProt P41231)
Sequence of panel of 320 non-olfactory GPCRs (Homo sapiens, UniProt P41231) (P41231 whole entry): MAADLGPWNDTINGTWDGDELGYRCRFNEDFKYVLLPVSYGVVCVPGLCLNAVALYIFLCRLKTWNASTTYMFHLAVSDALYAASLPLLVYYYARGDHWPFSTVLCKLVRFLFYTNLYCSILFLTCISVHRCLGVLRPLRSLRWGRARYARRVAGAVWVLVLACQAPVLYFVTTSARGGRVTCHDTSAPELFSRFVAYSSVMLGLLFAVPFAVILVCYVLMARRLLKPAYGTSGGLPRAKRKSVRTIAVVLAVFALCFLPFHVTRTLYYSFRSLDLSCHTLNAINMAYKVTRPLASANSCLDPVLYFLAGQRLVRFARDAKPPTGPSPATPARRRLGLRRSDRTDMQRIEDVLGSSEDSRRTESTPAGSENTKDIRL

[6] = target: panel of 320 non-olfactory GPCRs (Homo sapiens, UniProt P46093)
Sequence of panel of 320 non-olfactory GPCRs (Homo sapiens, UniProt P46093) (P46093 whole entry): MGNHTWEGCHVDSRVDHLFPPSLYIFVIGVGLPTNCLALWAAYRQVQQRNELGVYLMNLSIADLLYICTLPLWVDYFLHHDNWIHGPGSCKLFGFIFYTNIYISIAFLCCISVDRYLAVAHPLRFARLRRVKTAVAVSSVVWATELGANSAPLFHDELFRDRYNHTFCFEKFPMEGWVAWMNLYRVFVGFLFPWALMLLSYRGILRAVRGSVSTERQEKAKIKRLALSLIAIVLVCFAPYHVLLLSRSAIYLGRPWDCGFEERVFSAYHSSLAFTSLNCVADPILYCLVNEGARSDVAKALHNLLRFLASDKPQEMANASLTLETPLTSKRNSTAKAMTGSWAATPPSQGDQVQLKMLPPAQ

[7] = target: panel of 320 non-olfactory GPCRs (Homo sapiens, UniProt Q99788)
[8] = target: panel of 320 non-olfactory GPCRs (Homo sapiens, UniProt Q9Y5X5)
[9] = target: panel of 320 non-olfactory GPCRs (Homo sapiens, UniProt Q9BY21)
[10] = target: panel of 320 non-olfactory GPCRs (Homo sapiens, UniProt Q9HBW9)
Sequence of panel of 320 non-olfactory GPCRs (Homo sapiens, UniProt Q9HBW9) (Q9HBW9 20-690): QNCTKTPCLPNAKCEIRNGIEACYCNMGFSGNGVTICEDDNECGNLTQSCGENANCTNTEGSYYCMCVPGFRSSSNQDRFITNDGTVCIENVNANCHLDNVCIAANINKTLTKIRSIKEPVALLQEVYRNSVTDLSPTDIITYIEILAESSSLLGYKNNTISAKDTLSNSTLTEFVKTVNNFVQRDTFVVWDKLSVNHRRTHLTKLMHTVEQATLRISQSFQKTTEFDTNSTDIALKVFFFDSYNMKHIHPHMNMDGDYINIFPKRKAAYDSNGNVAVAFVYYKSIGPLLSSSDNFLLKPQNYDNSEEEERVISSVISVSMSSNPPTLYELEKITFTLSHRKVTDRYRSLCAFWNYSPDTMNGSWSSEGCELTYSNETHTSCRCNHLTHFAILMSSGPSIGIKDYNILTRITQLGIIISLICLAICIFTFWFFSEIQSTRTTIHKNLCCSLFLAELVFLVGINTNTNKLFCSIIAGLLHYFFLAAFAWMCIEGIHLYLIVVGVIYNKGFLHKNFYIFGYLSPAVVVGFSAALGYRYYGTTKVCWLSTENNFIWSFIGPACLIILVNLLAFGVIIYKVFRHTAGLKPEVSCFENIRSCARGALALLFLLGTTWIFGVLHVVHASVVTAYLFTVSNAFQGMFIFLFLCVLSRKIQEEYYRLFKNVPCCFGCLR

[11] = target: panel of 320 non-olfactory GPCRs (Homo sapiens, UniProt P32249)
[12] = target: panel of 320 non-olfactory GPCRs (Homo sapiens, UniProt Q01718)
[13] = target: panel of 320 non-olfactory GPCRs (Homo sapiens, UniProt Q8NDV2)
Sequence of panel of 320 non-olfactory GPCRs (Homo sapiens, UniProt Q8NDV2) (Q8NDV2 whole entry): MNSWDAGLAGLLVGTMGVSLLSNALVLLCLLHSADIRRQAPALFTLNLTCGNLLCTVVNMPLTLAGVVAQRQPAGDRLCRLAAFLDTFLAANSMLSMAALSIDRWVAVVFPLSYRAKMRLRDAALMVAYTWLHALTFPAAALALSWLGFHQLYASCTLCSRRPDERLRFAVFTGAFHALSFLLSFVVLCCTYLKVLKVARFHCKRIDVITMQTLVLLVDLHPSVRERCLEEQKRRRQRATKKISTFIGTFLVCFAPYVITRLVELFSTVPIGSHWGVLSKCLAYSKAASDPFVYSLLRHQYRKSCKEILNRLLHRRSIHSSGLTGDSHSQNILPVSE

[14] = target: panel of 320 non-olfactory GPCRs (Homo sapiens, UniProt Q96P67)
Sequence of panel of 320 non-olfactory GPCRs (Homo sapiens, UniProt Q96P67) (Q96P67 whole entry): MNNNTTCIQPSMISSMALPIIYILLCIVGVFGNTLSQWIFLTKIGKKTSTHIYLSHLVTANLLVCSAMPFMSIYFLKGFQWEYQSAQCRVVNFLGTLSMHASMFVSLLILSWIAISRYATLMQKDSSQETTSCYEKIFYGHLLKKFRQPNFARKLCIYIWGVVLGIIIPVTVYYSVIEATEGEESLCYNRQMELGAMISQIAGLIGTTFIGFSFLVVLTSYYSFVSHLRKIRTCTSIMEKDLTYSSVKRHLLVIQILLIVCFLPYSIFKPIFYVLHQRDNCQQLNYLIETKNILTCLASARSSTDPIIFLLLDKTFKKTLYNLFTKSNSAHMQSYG

[15] = target: panel of 320 non-olfactory GPCRs (Homo sapiens, UniProt Q9GZQ4)
[16] = target: panel of 320 non-olfactory GPCRs (Homo sapiens, UniProt P21918)
[17] = target: panel of 320 non-olfactory GPCRs (Homo sapiens, UniProt P30550)
[18] = target: panel of 320 non-olfactory GPCRs (Homo sapiens, UniProt P51685)
[19] = target: panel of 320 non-olfactory GPCRs (Homo sapiens, UniProt Q5T6X5)
[20] = target: panel of 320 non-olfactory GPCRs (Homo sapiens, UniProt Q13304)
[21] = target: panel of 320 non-olfactory GPCRs (Homo sapiens, UniProt P46091)
Sequence of panel of 320 non-olfactory GPCRs (Homo sapiens, UniProt P46091) (P46091 whole entry): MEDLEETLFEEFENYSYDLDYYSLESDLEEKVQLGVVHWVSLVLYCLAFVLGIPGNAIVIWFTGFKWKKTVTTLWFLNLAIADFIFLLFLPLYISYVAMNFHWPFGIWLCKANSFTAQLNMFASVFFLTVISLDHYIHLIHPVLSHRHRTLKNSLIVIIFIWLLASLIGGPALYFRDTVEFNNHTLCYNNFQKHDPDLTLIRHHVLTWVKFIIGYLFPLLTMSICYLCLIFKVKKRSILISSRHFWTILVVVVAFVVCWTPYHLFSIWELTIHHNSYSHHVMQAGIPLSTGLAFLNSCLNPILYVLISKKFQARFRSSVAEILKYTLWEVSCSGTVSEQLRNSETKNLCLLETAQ

[22] = target: panel of 320 non-olfactory GPCRs (Homo sapiens, UniProt P25025)
Sequence of panel of 320 non-olfactory GPCRs (Homo sapiens, UniProt P25025) (P25025 whole entry): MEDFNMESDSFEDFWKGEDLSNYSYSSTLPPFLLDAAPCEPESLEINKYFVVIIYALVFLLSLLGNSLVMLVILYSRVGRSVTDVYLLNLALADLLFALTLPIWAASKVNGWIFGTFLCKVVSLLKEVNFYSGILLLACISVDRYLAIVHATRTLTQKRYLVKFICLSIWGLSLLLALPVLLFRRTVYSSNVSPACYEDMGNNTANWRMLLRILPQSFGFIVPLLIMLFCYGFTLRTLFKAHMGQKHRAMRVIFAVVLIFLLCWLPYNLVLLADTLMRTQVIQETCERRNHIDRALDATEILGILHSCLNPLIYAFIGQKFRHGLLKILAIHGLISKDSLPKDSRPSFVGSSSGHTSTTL

[23] = target: panel of 320 non-olfactory GPCRs (Homo sapiens, UniProt Q9Y653)
[24] = target: panel of 320 non-olfactory GPCRs (Homo sapiens, UniProt Q86VZ1)
Sequence of panel of 320 non-olfactory GPCRs (Homo sapiens, UniProt Q86VZ1) (Q86VZ1 whole entry): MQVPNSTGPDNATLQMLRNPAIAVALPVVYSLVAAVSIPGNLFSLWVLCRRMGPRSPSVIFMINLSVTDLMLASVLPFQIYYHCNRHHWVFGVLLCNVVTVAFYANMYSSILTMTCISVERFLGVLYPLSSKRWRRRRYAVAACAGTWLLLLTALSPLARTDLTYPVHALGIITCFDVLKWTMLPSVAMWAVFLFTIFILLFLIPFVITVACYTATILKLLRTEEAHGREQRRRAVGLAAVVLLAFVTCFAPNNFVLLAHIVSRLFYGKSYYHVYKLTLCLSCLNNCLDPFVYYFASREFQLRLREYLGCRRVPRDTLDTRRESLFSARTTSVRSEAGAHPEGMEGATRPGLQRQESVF

[25] = target: panel of 320 non-olfactory GPCRs (Homo sapiens, UniProt O15552)
[26] = target: panel of 320 non-olfactory GPCRs (Homo sapiens, UniProt Q9NQS5)
[27] = target: panel of 320 non-olfactory GPCRs (Homo sapiens, UniProt P35410)
Sequence of panel of 320 non-olfactory GPCRs (Homo sapiens, UniProt P35410) (P35410 whole entry): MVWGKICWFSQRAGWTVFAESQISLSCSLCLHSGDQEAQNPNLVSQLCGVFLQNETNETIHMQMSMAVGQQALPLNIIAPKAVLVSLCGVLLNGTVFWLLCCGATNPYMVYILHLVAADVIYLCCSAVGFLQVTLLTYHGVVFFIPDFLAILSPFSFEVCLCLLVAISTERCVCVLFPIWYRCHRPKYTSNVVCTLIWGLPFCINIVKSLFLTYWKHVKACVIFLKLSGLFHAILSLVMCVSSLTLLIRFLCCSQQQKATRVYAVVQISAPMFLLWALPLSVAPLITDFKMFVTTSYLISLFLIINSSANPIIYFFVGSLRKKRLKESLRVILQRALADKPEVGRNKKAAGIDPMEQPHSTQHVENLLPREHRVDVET

[28] = target: panel of 320 non-olfactory GPCRs (Homo sapiens, UniProt P30556)
[29] = target: panel of 320 non-olfactory GPCRs (Homo sapiens, UniProt P34969)
[30] = target: panel of 320 non-olfactory GPCRs (Homo sapiens, UniProt O95136)
[31] = target: panel of 320 non-olfactory GPCRs (Homo sapiens, UniProt P08173)
Sequence of panel of 320 non-olfactory GPCRs (Homo sapiens, UniProt P08173) (P08173 whole entry): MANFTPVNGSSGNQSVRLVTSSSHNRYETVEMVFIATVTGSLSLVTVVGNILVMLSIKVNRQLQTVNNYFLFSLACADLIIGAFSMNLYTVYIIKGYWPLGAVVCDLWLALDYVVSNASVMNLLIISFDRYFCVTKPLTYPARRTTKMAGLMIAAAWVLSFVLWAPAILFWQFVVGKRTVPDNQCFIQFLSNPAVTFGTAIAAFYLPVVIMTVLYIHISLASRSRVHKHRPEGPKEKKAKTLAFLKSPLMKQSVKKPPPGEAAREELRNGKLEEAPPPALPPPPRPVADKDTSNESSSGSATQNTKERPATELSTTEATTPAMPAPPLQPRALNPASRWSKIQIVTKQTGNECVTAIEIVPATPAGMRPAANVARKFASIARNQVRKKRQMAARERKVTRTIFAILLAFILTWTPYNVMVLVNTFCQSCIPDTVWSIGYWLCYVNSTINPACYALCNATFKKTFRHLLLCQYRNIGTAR

[32] = target: panel of 320 non-olfactory GPCRs (Homo sapiens, UniProt P08172)
Sequence of panel of 320 non-olfactory GPCRs (Homo sapiens, UniProt P08172) (P08172 whole entry): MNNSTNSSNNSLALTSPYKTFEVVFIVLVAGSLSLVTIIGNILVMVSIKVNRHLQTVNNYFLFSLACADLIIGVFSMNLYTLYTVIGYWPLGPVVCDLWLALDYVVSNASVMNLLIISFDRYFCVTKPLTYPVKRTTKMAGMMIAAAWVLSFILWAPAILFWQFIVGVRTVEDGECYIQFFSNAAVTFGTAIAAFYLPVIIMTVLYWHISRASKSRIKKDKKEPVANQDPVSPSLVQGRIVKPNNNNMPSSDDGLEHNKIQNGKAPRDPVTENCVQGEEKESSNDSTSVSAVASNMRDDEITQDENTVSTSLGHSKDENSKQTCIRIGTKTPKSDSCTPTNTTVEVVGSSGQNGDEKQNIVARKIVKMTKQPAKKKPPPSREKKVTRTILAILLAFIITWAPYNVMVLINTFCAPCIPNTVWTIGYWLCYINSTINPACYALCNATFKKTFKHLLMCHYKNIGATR

[33] = target: panel of 320 non-olfactory GPCRs (Homo sapiens, UniProt P47898)
[34] = target: panel of 320 non-olfactory GPCRs (Homo sapiens, UniProt P28335)
[35] = target: panel of 320 non-olfactory GPCRs (Homo sapiens, UniProt Q99680)
[36] = target: panel of 320 non-olfactory GPCRs (Homo sapiens, UniProt P21453)
Sequence of panel of 320 non-olfactory GPCRs (Homo sapiens, UniProt P21453) (P21453 whole entry): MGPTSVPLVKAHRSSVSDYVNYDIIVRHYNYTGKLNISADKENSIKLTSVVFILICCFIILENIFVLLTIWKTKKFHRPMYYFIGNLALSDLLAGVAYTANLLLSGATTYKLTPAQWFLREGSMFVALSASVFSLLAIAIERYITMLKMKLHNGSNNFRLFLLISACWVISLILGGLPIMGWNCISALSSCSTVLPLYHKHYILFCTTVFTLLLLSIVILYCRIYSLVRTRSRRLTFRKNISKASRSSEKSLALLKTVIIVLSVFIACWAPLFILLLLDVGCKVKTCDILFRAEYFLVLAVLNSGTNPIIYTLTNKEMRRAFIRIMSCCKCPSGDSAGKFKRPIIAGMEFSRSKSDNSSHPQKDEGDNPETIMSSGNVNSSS

[37] = target: panel of 320 non-olfactory GPCRs (Homo sapiens, UniProt P49190)

Compound: Cc1cc(C(=O)NC(C)(c2ccco2)c2ccco2)nn1-c1cccc(C(F)(F)F)c1 [‘4936]
- Fold of Basal RLU [1]: 1.3 and 1.1 and 1.4 and 0.8
- Fold of Basal RLU [2]: 0.8 fold and 1.1 fold and 0.9 fold
- Fold of Basal RLU [3]: 0.9 and 0.7
- Fold of Basal RLU [4]: 0.7 and 0.6 and 0.9
- Fold of Basal RLU [5]: 0.9 fold and 1.2 fold and 1 fold and 1.1 fold
- Fold of Basal RLU [6]: 0.9 fold and 1 fold and 0.8 fold
- Fold of Basal RLU [7]: 1.1 and 1 and 0.9
- Fold of Basal RLU [8]: 0.4 and 0.6 and 0.5 and 0.3
- Fold of Basal RLU [9]: 1 fold and 1.2 fold and 1.1 fold and 1.3 fold
- Fold of Basal RLU [10]: 1.6 fold and 1.5 fold and 1.1 fold
- Fold of Basal RLU [11]: 0.9 and 1
- Fold of Basal RLU [12]: 1.4 and 1.2 and 1
- Fold of Basal RLU [13]: 2 fold and 1.4 fold and 2.8 fold and 1.7 fold
- Fold of Basal RLU [14]: 1 fold and 0.9 fold
- Fold of Basal RLU [15]: 0.9 fold and 0.8 fold and 0.7 fold
- Fold of Basal RLU [16]: 1.1 and 1.3 and 1.4
- Fold of Basal RLU [17]: 0.8 fold and 0.6 fold
- Fold of Basal RLU [18]: 1.5 and 1.1 and 1.2 and 0.9
- Fold of Basal RLU [19]: 0.9 fold and 1.1 fold and 0.6 fold and 1 fold
- Fold of Basal RLU [20]: 1.6 fold and 1.4 fold and 1.1 fold
- Fold of Basal RLU [21]: 1 fold and 1.2 fold and 1.5 fold and 1.3 fold
- Fold of Basal RLU [22]: 1.8 fold and 1.3 fold and 1.4 fold and 1.6 fold
- Fold of Basal RLU [23]: 2.1 fold and 1.6 fold and 1.2 fold and 1.1 fold
- Fold of Basal RLU [24]: 0.5 fold and 0.8 fold
- Fold of Basal RLU [25]: 1.3 and 1.4 and 1.2 and 1.1
- Fold of Basal RLU [26]: 1 fold and 0.9 fold and 1.6 fold
- Fold of Basal RLU [27]: 0.8 and 0.4 and 0.6
- Fold of Basal RLU [28]: 1.7 and 1.2 and 1.4 and 1.8
- Fold of Basal RLU [29]: 1 fold and 1.5 fold and 1.8 fold
- Fold of Basal RLU [30]: 0.9 fold and 1.1 fold and 1.2 fold and 1 fold
- Fold of Basal RLU [31]: 0.7 and 1.1 and 1 and 0.6
- Fold of Basal RLU [32]: 0.8 fold and 0.9 fold and 0.7 fold and 0.6 fold
- Fold of Basal RLU [33]: 2.1 fold and 2.3 fold
- Fold of Basal RLU [34]: 1.5 fold and 1.3 fold and 1.1 fold
- Fold of Basal RLU [35]: 1.3 fold and 1 fold and 1.2 fold and 0.8 fold
- Fold of Basal RLU [36]: 1.2 fold and 0.7 fold and 1.1 fold
- Fold of Basal RLU [37]: 1 and 0.8 and 0.6

Compound: COC(=O)[C@@](C)(NC(=O)c1cc(C)n(-c2cccc(C(F)(F)F)c2)n1)c1cccs1 [‘1350]
- Fold of Basal RLU [1]: 0.8 and 1 and 1.2 and 1.1
- Fold of Basal RLU [2]: 0.7 fold and 1.1 fold and 1 fold
- Fold of Basal RLU [3]: 1.1 and 1 and 0.9 and 0.8
- Fold of Basal RLU [4]: 0.7 and 0.8 and 0.6 and 0.9
- Fold of Basal RLU [5]: 1.3 fold and 1.4 fold and 1 fold
- Fold of Basal RLU [6]: 1.1 fold and 0.9 fold and 1 fold
- Fold of Basal RLU [7]: 1.1 and 1 and 1.2
- Fold of Basal RLU [8]: 0.3
- Fold of Basal RLU [9]: 1 fold and 0.9 fold and 1.1 fold
- Fold of Basal RLU [10]: 1.3 fold and 1.6 fold and 2.3 fold and 1.8 fold
- Fold of Basal RLU [11]: 0.8 and 0.9 and 1
- Fold of Basal RLU [12]: 1 and 1.3 and 0.7
- Fold of Basal RLU [13]: 1.6 fold and 1.8 fold and 1.3 fold
- Fold of Basal RLU [14]: 1 fold and 1.1 fold
- Fold of Basal RLU [15]: 0.7 fold and 0.9 fold and 0.8 fold
- Fold of Basal RLU [16]: 0.5 and 0.4 and 0.6
- Fold of Basal RLU [17]: 0.8 fold and 1.2 fold
- Fold of Basal RLU [18]: 1.6 and 1.3 and 1.1 and 1
- Fold of Basal RLU [19]: 0.7 fold and 0.9 fold and 1.1 fold
- Fold of Basal RLU [20]: 1 fold and 1.2 fold and 0.8 fold and 1.1 fold
- Fold of Basal RLU [21]: 1 fold and 0.8 fold and 1.4 fold
- Fold of Basal RLU [22]: 0.8 fold and 1 fold and 1.1 fold
- Fold of Basal RLU [23]: 1.4 fold and 1.2 fold and 1.5 fold
- Fold of Basal RLU [24]: 0.6 fold and 1.1 fold and 0.8 fold and 0.7 fold
- Fold of Basal RLU [25]: 0.9 and 1.2
- Fold of Basal RLU [26]: 1 fold and 1.1 fold and 1.2 fold and 1.4 fold
- Fold of Basal RLU [27]: 1.9 and 1.3 and 1 and 1.2
- Fold of Basal RLU [28]: 1.1 and 1.3 and 1.2
- Fold of Basal RLU [29]: 0.9 fold and 1.4 fold and 1 fold
- Fold of Basal RLU [30]: 1.3 fold and 0.9 fold and 1.2 fold and 1 fold
- Fold of Basal RLU [31]: 1 and 1.1 and 0.6 and 0.8
- Fold of Basal RLU [32]: 0.9 fold and 0.6 fold and 0.8 fold
- Fold of Basal RLU [33]: 1.5 fold and 2.2 fold
- Fold of Basal RLU [34]: 1.6 fold and 1 fold and 1.3 fold and 1.2 fold
- Fold of Basal RLU [35]: 0.7 fold and 0.9 fold and 0.8 fold
- Fold of Basal RLU [36]: 0.9 fold and 1 fold and 0.8 fold and 0.7 fold
- Fold of Basal RLU [37]: 1 and 0.7 and 0.9
